Target: T1, gp16 (eGFP-gp16) (Bacillus phage phi29, UniProt P11014)
T1 sequence (P11014 1-332): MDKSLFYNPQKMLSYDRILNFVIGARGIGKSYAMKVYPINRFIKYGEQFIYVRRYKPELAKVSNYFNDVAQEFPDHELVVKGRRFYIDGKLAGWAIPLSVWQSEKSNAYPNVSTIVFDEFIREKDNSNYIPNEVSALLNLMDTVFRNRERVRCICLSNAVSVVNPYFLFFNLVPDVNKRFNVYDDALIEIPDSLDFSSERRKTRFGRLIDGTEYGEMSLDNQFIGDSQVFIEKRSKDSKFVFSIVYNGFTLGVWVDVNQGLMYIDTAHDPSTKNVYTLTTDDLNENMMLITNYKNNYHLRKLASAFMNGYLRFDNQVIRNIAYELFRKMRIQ
Assay: EMSA, release of dsDNA from gp16/dsDNA/γ-S-ATP complex
Type: binding
Details: γ-S-ATP present, Cy3-dsDNA; indirect read-out of nucleotide action

Nc1ncnc2c1ncn2[C@@H]1O[C@H](COP(=O)(O)OP(=O)(O)O)[C@@H](O)[C@H]1O [ADP]
EMSA, release of dsDNA from gp16/dsDNA/γ-S-ATP complex: ADP also stimulated the release of gp16 from the gp16/dsDNA complex

From article PMC3315319 (Nucleic Acids Research, 2011)
